Measurements: publication PMC9506485, “Synthesis and Structure–Activity Relationships for the Anti-Mycobacterial Activity of 3-Phenyl-N-(Pyridin-2-ylmethyl)Pyrazolo[1,5-a]Pyrimidin-7-Amines” (Pharmaceuticals, 2022)
≈ marks a conversion by molar mass, not a printed value.

How the values were obtained:
[1] = system: VERO green monkey kidney cells; experiment: VERO mammalian cell toxicity assay; format: cell-based; conditions: inhibition of growth of VERO green monkey kidney epithelial cells; for IC50: Chlorocebus sabaeus
[2] = system: Mycobacterium tuberculosis (strain H37Rv); experiment: MABA minimum inhibitory concentration assay (aerobic/replicating); format: cell-based; conditions: M.tb H37Rv; for MIC90: Mycobacterium tuberculosis; for MIC90 / MIC90 MABA: aerobic/replicating, 90% inhibition of growth; for anti-mycobacterial activity in words: MABA/LORA
[3] = system: Mycobacterium tuberculosis (strain H37Rv); experiment: LORA minimum inhibitory concentration assay (low-oxygen/non-replicating); conditions: M.tb H37Rv, 90% inhibition of growth
[4] = Microsomal stability, human liver microsomes; format: in vitro ADME; conditions: pH 7.4; for microsomal CLint at 1 μM: human liver microsomes, read-out: HLM Clint(mic)
Experimental: (§1) Assays were performed by WuXi AppTec (Shanghai) Co., Ltd. The test compounds (Table 4) (at 1 μM) were incubated at 37 °C with liver microsomes from human or CD-1 mice in the presence of a NADPH regenerating system and phosphate buffer (100 mM, pH 7.4) at 0.5 mg/mL microsomal protein (the positive controls were testosterone, propafenone, and diclofenac). Samples were removed at time intervals of 0, 5, 10, 20, 30, and 60 min and immediately mixed with cold CH3CN (containing 0.1 μg/mL of tolbutamide as an internal standard) and then centrifuged prior to analysis by LCMS/MS.

[5] = Microsomal stability, mouse liver microsomes; format: in vitro ADME; conditions: for CLint scaled at 1 μM / half-life at 1 μM: CD-1, mouse, microsomes, pH 7.4; for microsomal CLint at 1 μM: CD-1, pH 7.4, mouse liver microsomes, read-out: MLM Clint(mic)
Experimental: as §1

[6] = human/mouse liver microsomes not distinguished, read-out: T½ values (microsomal stability)

| Compound | IC50 [1] [µg/mL] | MIC90 [2] [µg/mL] | MIC90 LORA [3] [µg/mL] | melting point [°C] | also measured |
| --- | --- | --- | --- | --- | --- |
| COc1cccc(-c2cc(NCc3ccccn3)n3ncc(-c4ccc(F)cc4)c3n2)c1 [Compound 31, 3-(4-Fluorophenyl)-5-(3-methoxyphenyl)-N-(pyridin-2-ylmethyl)pyrazolo[1,5-a]pyrimidin-7-amine] | > 32 | 3.9 (≈ 9.17 µM) | 1.7 (≈ 4 µM) |  |  |
| CCc1cc(NCc2ccccn2)n2ncc(-c3ccc(F)cc3)c2n1 [Compound 23, 5-Ethyl-3-(4-fluorophenyl)-N-(pyridin-2-ylmethyl)pyrazolo[1,5-a]pyrimidin-7-amine] | 14.1 (≈ 40.6 µM) | 1.4 (≈ 4.03 µM) | 0.45 (≈ 1.3 µM) | 137 to 138 |  |
| CN(C)CCCc1ccc(CNc2cc(-c3ccccc3)nc3c(-c4ccc(F)cc4)cnn23)nc1 [Compound 56, N-((5-(3-(dimethylamino)propyl)pyridin-2-yl)methyl)-3-(4-fluorophenyl)-5-phenylpyrazolo[1,5-a]pyrimidin-7-amine] | 20.3 (≈ 42.2 µM) | 5.8 (≈ 12.1 µM) | 6.1 (≈ 12.7 µM) |  |  |
| CN(C)c1cccc(CNc2cc(-c3ccccc3)nc3c(-c4ccc(F)cc4)cnn23)n1 [Compound 49, N-((6-(Dimethylamino)pyridin-2-yl)methyl)-3-(4-fluorophenyl)-5-phenylpyrazolo[1,5-a]pyrimidin-7-amine] | > 32 | 1.39 (≈ 3.17 µM) | 0.40 (≈ 0.912 µM) | 151 to 153 |  |
| N-((4-(2-(Dimethylamino)ethoxy)pyridin-2-yl)methyl)-3-(4-fluorophenyl)-5-phenylpyrazolo[1,5-a]pyrimidin-7-amine [Compound 58] |  |  | 4.1 |  | IC50 VERO [1]: >32 µg/mL; MIC90 MABA [2]: 4.7 µg/mL |
| Fc1ccc(-c2cnn3c(NCc4cc(N5CCCC5)ccn4)cc(-c4ccccc4)nc23)cc1 [Compound 64, 3-(4-Fluorophenyl)-5-phenyl-N-((4-(pyrrolidin-1-yl)pyridin-2-yl)methyl)pyrazolo[1,5-a]pyrimidin-7-amine] | 16 (≈ 34.4 µM) | 0.47 (≈ 1.01 µM) | 0.94 (≈ 2.02 µM) | 221 to 223 |  |
| N#Cc1ccnc(CNc2cc(-c3ccccc3)nc3c(-c4ccc(F)cc4)cnn23)c1 [Compound 61, 2-(((3-(4-Fluorophenyl)-5-phenylpyrazolo[1,5-a]pyrimidin-7-yl)amino)methyl)isonicotinonitrile] | > 32 | > 32 | >32 | 233 to 236 | anti-mycobacterial activity in words [2]: inactive |
| COc1cccc(-c2cnn3c(NCc4ccccn4)cc(-c4ccccc4)nc23)c1 [Compound 16, 3-(3-Methoxyphenyl)-5-phenyl-N-(pyridin-2-ylmethyl)pyrazolo[1,5-a]pyrimidin-7-amine] | > 32 | 7.6 (≈ 18.7 µM) | 10 (≈ 24.5 µM) | 122 to 124 |  |
| C=Cc1cc(NCc2ccccn2)n2ncc(-c3ccc(F)cc3)c2n1 [Compound 24, 3-(4-Fluorophenyl)-N-(pyridin-2-ylmethyl)-5-vinylpyrazolo[1,5-a]pyrimidin-7-amine] | 17.2 (≈ 49.8 µM) | 1.48 (≈ 4.29 µM) | 0.47 (≈ 1.36 µM) |  |  |
| Fc1ccccc1-c1cnn2c(NCc3ccccn3)cc(-c3ccccc3)nc12 [Compound 11, 3-(2-Fluorophenyl)-5-phenyl-N-(pyridin-2-ylmethyl)pyrazolo[1,5-a]pyrimidin-7-amine] | > 32 | > 32 | >32 | 176 to 178 |  |
| Cc1cccc(CNc2cc(-c3ccccc3)nc3c(-c4ccc(F)cc4)cnn23)n1 [Compound 47, 3-(4-Fluorophenyl)-N-((6-methylpyridin-2-yl)methyl)-5-phenylpyrazolo[1,5-a]pyrimidin-7-amine] | > 32 | > 32 | >32 | 177 to 180 |  |
| Fc1ccc(-c2cnn3c(NCc4ccccn4)cc(C4=CCCC4)nc23)cc1 [Compound 26, 5-(Cyclopent-1-en-1-yl)-3-(4-fluorophenyl)-N-(pyridin-2-ylmethyl)pyrazolo[1,5-a]pyrimidin-7-amine] | > 32 | 0.89 (≈ 2.31 µM) | 0.23 (≈ 0.597 µM) |  | CLint scaled at 1 μM ([4]; human, microsomes): 32 mL/min/kg; half-life at 1 μM ([4]; human, microsomes): 39 min; microsomal CLint at 1 μM [4]: 35 µL/min/mg; half-life at 1 μM [4, 6]: < 85 min; CLint scaled at 1 μM [5]: 140 mL/min/kg; half-life at 1 μM [5]: 39 min; microsomal CLint at 1 μM [5]: 35 µL/min/mg |
| FC(F)(F)c1ccccc1-c1cnn2c(NCc3ccccn3)cc(-c3ccccc3)nc12 [Compound 13, 5-Phenyl-N-(pyridin-2-ylmethyl)-3-(2-(trifluoromethyl)phenyl)pyrazolo[1,5-a]pyrimidin-7-amine] | > 32 | > 32 | >32 | 166 to 168 |  |
| Fc1ccc(-c2cnn3c(NCc4ccccn4)cc(-c4ccco4)nc23)cc1 [Compound 43, 3-(4-Fluorophenyl)-5-(furan-2-yl)-N-(pyridin-2-ylmethyl)pyrazolo[1,5-a]pyrimidin-7-amine] | > 32 | 0.96 (≈ 2.49 µM) | <0.13 |  |  |
| Cc1ccc(-c2cc(NCc3ccccn3)n3ncc(-c4ccc(F)cc4)c3n2)cc1 [Compound 33, 3-(4-Fluorophenyl)-N-(pyridin-2-ylmethyl)-5-(p-tolyl)pyrazolo[1,5-a]pyrimidin-7-amine] | > 32 | 3.7 (≈ 9.04 µM) | 5.0 (≈ 12.2 µM) |  |  |
| CN(C)CC#Cc1ccc(CNc2cc(-c3ccccc3)nc3c(-c4ccc(F)cc4)cnn23)nc1 [Compound 55, N-((5-(3-(Dimethylamino)prop-1-yn-1-yl)pyridin-2-yl)methyl)-3-(4-fluorophenyl)-5-phenylpyrazolo[1,5-a]pyrimidin-7-amine] | > 32 | 1.9 (≈ 3.99 µM) | 5.5 (≈ 11.5 µM) |  | CLint scaled at 1 μM ([4]; human, microsomes): < 8.6 mL/min/kg; half-life at 1 μM ([4]; human, microsomes): > 145 min; microsomal CLint at 1 μM [4]: < 9.6 µL/min/mg; CLint scaled at 1 μM [5]: 121 mL/min/kg; half-life at 1 μM [5]: 45.4 min; microsomal CLint at 1 μM [5]: 31 µL/min/mg |
| Fc1ccc(-c2cc(NCc3ccccn3)n3ncc(-c4ccc(F)cc4)c3n2)cc1 [Compound 32, 3,5-Bis(4-fluorophenyl)-N-(pyridin-2-ylmethyl)pyrazolo[1,5-a]pyrimidin-7-amine] | > 32 | 3 (≈ 7.26 µM) | 0.22 (≈ 0.532 µM) |  |  |
| 3-(4-Fluorophenyl)-N-((6-(4-methylpiperidin-1-yl)pyridin-2-yl)methyl)-5-phenylpyrazolo[1,5-a]pyrimidin-7-amine [Compound 51] |  |  | 0.85 |  | IC50 VERO [1]: 11.8 µg/mL; MIC90 MABA [2]: 0.94 µg/mL |
| FC(F)(F)c1ccc(-c2cnn3c(NCc4ccccn4)cc(-c4ccccc4)nc23)cc1 [Compound 21, 5-Phenyl-N-(pyridin-2-ylmethyl)-3-(4-(trifluoromethyl)phenyl)pyrazolo[1,5-a]pyrimidin-7-amine] | > 32 | > 32 | >32 | 188 to 190 | anti-mycobacterial activity in words [2]: inactive |
| Fc1ccc(-c2cnn3c(NCc4ccccn4)cc(C4=CCCCC4)nc23)cc1 [Compound 27, 5-(Cyclohex-1-en-1-yl)-3-(4-fluorophenyl)-N-(pyridin-2-ylmethyl)pyrazolo[1,5-a]pyrimidin-7-amine] | > 32 | 0.62 (≈ 1.55 µM) | 0.44 (≈ 1.1 µM) |  | CLint scaled at 1 μM ([4]; human, microsomes): 17 mL/min/kg; half-life at 1 μM ([4]; human, microsomes): 75 min; microsomal CLint at 1 μM [4]: 19 µL/min/mg; half-life at 1 μM [4, 6]: < 85 min; CLint scaled at 1 μM [5]: 120 mL/min/kg; half-life at 1 μM [5]: 49 min; microsomal CLint at 1 μM [5]: 30 µL/min/mg |
| Fc1ccc(-c2cnn3c(NCc4ccccn4)cc(-c4ccc(C(F)(F)F)cc4)nc23)cc1 [Compound 37, 3-(4-Fluorophenyl)-N-(pyridin-2-ylmethyl)-5-(4-(trifluoromethyl)phenyl)pyrazolo[1,5-a]pyrimidin-7-amine] | > 32 | 3.8 (≈ 8.2 µM) | 3.6 (≈ 7.77 µM) |  |  |
| CN(C)CCOc1ccc(CNc2cc(-c3ccccc3)nc3c(-c4ccc(F)cc4)cnn23)nc1 [Compound 57, N-((5-(2-(Dimethylamino)ethoxy)pyridin-2-yl)methyl)-3-(4-fluorophenyl)-5-phenylpyrazolo[1,5-a]pyrimidin-7-amine] | 24 (≈ 49.7 µM) | 3.6 (≈ 7.46 µM) | 1.9 (≈ 3.94 µM) |  |  |
| COc1ccccc1-c1cc(NCc2ccccn2)n2ncc(-c3ccc(F)cc3)c2n1 [Compound 29, 3-(4-Fluorophenyl)-5-(2-methoxyphenyl)-N-(pyridin-2-ylmethyl)pyrazolo[1,5-a]pyrimidin-7-amine] | > 32 | 13.3 (≈ 31.3 µM) | 9.0 (≈ 21.2 µM) |  |  |
| Fc1ccc(-c2cnn3c(NCc4ccccn4)cc(-c4ccncc4)nc23)cc1 [Compound 40, 3-(4-Fluorophenyl)-N-(pyridin-2-ylmethyl)-5-(pyridin-4-yl)pyrazolo[1,5-a]pyrimidin-7-amine] | > 32 | > 32 | 28 (≈ 70.6 µM) |  |  |
| Fc1ccc(-c2cnn3c(NCc4ccccn4)ccnc23)cc1 [Compound 22, 3-(4-Fluorophenyl)-N-(pyridin-2-ylmethyl)pyrazolo[1,5-a]pyrimidin-7-amine] | > 32 | 0.89 (≈ 2.79 µM) | 0.39 (≈ 1.22 µM) |  |  |
